# From patent publication US20260092179A1, “GENETICALLY MODIFIED HOST CELLS PRODUCING VIOLACEIN, ANALOGUES, AND DERIVATIVES THEREOF” (OCTARINE BIO APS, priority 2022, published 2026)
# Assays:
# [1] = Stability during laundering of dyed fabrics (colour fastness, ΔE); type: physicochemical; details: washed at 30° c.
# Experimental: (§1) In order to assess the stability and colour fastness of violacein and violacein derivatives dyed onto fabrics, dyed fabrics were subjected to a number of conditions. Fabrics were dyed according to Example 18 and colour coordinates and colour change before and after exposure to a given condition were determined as described in Example 18. To measure temperature stability, fabrics were incubated in an oven set to 80° c. for 4 h. To measure stability under acid and alkaline conditions, fabrics were fully submerged in water solutions set to pH 8 with NaOH and pH 5 with HCl and incubated at room temperature for 30 minutes. Fabrics were then incubated at 37° c. for 4 h. To measure stability during laundering, fabrics were washed at 30° c. under the “mix” setting of a Siemens IQ300 washing machine, then dried in a Siemens IQ300 dryer until dry. To measure artificial light stability, fabrics were placed under an LED lamp at room temperature for 16 h. To measure UV light stability, fabrics were placed under a UV lamp at room temperature for 1 h.
# [2] = Temperature stability of dyed fabrics (colour fastness, ΔE); type: physicochemical; details: oven 80° c. for 4 h; for ΔE: before and after the stability test
# Experimental: as §1
# [3] = Alkaline pH stability of dyed fabrics (colour fastness, ΔE); type: physicochemical; details: pH 8 with NaOH
# Experimental: as §1
# E. coli DH5a = assay: Antimicrobial activity of dyed Nylon 6,6 fabric: final OD600 and % inhibition; type: cell-based
# S. cerevisiae S228c = assay: as above; type: cell-based
# [4] = Acrylic, before and after the stability test
# [5] = Bleached cotton, before and after the stability test
# [6] = Diacetate, before and after the stability test
# [7] = Nylon 6,6, before and after the stability test
# [8] = Polyester, before and after the stability test
# [9] = Wool, before and after the stability test
compound,measurement,setting,value
O=C1NC(c2c[nH]c3ccc(O)cc23)=C/C1=C1\C(=O)Nc2ccccc21 [violacein],L,"[1]; Acrylic, After test",76.54
same,a,"[1]; Acrylic, After test",1.43
same,b,"[1]; Acrylic, After test",1.73
same,L,"[1]; Acrylic, Before test",62.97
same,a,"[1]; Acrylic, Before test",2.52
same,b,"[1]; Acrylic, Before test",0.79
same,ΔE,[1]; [4],13.65
same,L,"[1]; Bleached cotton, After test",67.09
same,a,"[1]; Bleached cotton, After test",2.56
same,b,"[1]; Bleached cotton, After test",−9.43
same,L,"[1]; Bleached cotton, Before test",59.44
same,a,"[1]; Bleached cotton, Before test",2.08
same,b,"[1]; Bleached cotton, Before test",−7.15
same,ΔE,[1]; [5],8.00
same,L,"[1]; Diacetate, After test",48.28
same,a,"[1]; Diacetate, After test",7.64
same,b,"[1]; Diacetate, After test",−12.1
same,L,"[1]; Diacetate, Before test",44.66
same,a,"[1]; Diacetate, Before test",6.86
same,b,"[1]; Diacetate, Before test",−11.23
same,ΔE,[1]; [6],3.80
same,L,"[1]; Nylon 6,6, After test",36.95
same,a,"[1]; Nylon 6,6, After test",5.38
same,b,"[1]; Nylon 6,6, After test",−21.45
same,L,"[1]; Nylon 6,6, Before test",34.78
same,a,"[1]; Nylon 6,6, Before test",4.7
same,b,"[1]; Nylon 6,6, Before test",−19.46
same,ΔE,[1]; [7],3.02
same,L,"[1]; Polyester, After test",78.67
same,a,"[1]; Polyester, After test",0.26
same,b,"[1]; Polyester, After test",0.27
same,L,"[1]; Polyester, Before test",69.07
same,a,"[1]; Polyester, Before test",1.41
same,b,"[1]; Polyester, Before test",−0.67
same,ΔE,[1]; [8],9.71
same,L,"[1]; Wool, After test",73.9
same,a,"[1]; Wool, After test",1.48
same,b,"[1]; Wool, After test",1.8
same,L,"[1]; Wool, Before test",66.17
same,a,"[1]; Wool, Before test",1.43
same,b,"[1]; Wool, Before test",0.12
same,ΔE,[1]; [9],7.91
same,L,"[2]; Acrylic, After test",62.99
same,a,"[2]; Acrylic, After test",2.58
same,b,"[2]; Acrylic, After test",−1.01
same,L,"[2]; Acrylic, Before test",64.83
same,a,"[2]; Acrylic, Before test",1.28
same,b,"[2]; Acrylic, Before test",1.7
same,ΔE,[2]; Acrylic,3.52
same,L,"[2]; Bleached cotton, After test",59.33
same,a,"[2]; Bleached cotton, After test",3.72
same,b,"[2]; Bleached cotton, After test",−8.18
same,L,"[2]; Bleached cotton, Before test",60.51
same,a,"[2]; Bleached cotton, Before test",2.66
same,b,"[2]; Bleached cotton, Before test",−6.54
same,ΔE,[2]; Bleached cotton,2.28
same,L,"[2]; Diacetate, After test",41.38
same,a,"[2]; Diacetate, After test",10.6
same,b,"[2]; Diacetate, After test",−12.61
same,L,"[2]; Diacetate, Before test",43.1
same,a,"[2]; Diacetate, Before test",8.4
same,b,"[2]; Diacetate, Before test",−12.5
same,ΔE,[2]; Diacetate,2.79
same,L,"[2]; Nylon 6,6, After test",33.74
same,a,"[2]; Nylon 6,6, After test",5.53
same,b,"[2]; Nylon 6,6, After test",−19.85
same,L,"[2]; Nylon 6,6, Before test",34.91
same,a,"[2]; Nylon 6,6, Before test",5
same,b,"[2]; Nylon 6,6, Before test",−20.42
same,ΔE,"[2]; Nylon 6,6",1.41
same,L,"[2]; Polyester, After test",67.81
same,a,"[2]; Polyester, After test",4.37
same,b,"[2]; Polyester, After test",−3.55
same,L,"[2]; Polyester, Before test",68.98
same,a,"[2]; Polyester, Before test",3.25
same,b,"[2]; Polyester, Before test",−1.56
same,ΔE,[2]; Polyester,2.57
same,L,"[2]; Wool, After test",67.34
same,a,"[2]; Wool, After test",1.87
same,b,"[2]; Wool, After test",−0.17
same,L,"[2]; Wool, Before test",67
same,a,"[2]; Wool, Before test",1.5
same,b,"[2]; Wool, Before test",0.36
same,ΔE,[2]; Wool,0.73
same,L,"[3]; Acrylic, After test",63.85
same,a,"[3]; Acrylic, After test",2.52
same,b,"[3]; Acrylic, After test",0.06
same,L,"[3]; Acrylic, Before test",65.79
same,a,"[3]; Acrylic, Before test",3.11
same,b,"[3]; Acrylic, Before test",0.28
same,ΔE,[3]; [4],2.04
same,L,"[3]; Bleached cotton, After test",60.76
same,a,"[3]; Bleached cotton, After test",3.22
same,b,"[3]; Bleached cotton, After test",−7.53
same,L,"[3]; Bleached cotton, Before test",59.94
same,a,"[3]; Bleached cotton, Before test",2.69
same,b,"[3]; Bleached cotton, Before test",−8.23
same,ΔE,[3]; [5],1.20
same,L,"[3]; Diacetate, After test",44.97
same,a,"[3]; Diacetate, After test",7.85
same,b,"[3]; Diacetate, After test",−11.19
same,L,"[3]; Diacetate, Before test",43.93
same,a,"[3]; Diacetate, Before test",8.84
same,b,"[3]; Diacetate, Before test",−14.67
same,ΔE,[3]; [6],3.76
same,L,"[3]; Nylon 6,6, After test",33.91
same,a,"[3]; Nylon 6,6, After test",5.25
same,b,"[3]; Nylon 6,6, After test",−19.35
same,L,"[3]; Nylon 6,6, Before test",34.13
same,a,"[3]; Nylon 6,6, Before test",6.3
same,b,"[3]; Nylon 6,6, Before test",−20.23
same,ΔE,[3]; [7],1.39
same,L,"[3]; Polyester, After test",68.28
same,a,"[3]; Polyester, After test",1.01
same,b,"[3]; Polyester, After test",−0.5
same,L,"[3]; Polyester, Before test",66.44
same,a,"[3]; Polyester, Before test",4.15
same,b,"[3]; Polyester, Before test",−2.11
same,ΔE,[3]; [8],3.98
same,L,"[3]; Wool, After test",66.99
same,a,"[3]; Wool, After test",−0.18
same,b,"[3]; Wool, After test",1.19
same,L,"[3]; Wool, Before test",67.52
same,a,"[3]; Wool, Before test",0.35
same,b,"[3]; Wool, Before test",1.01
same,ΔE,[3]; [9],0.77
same,Final OD600,"E. coli DH5a; E. coli cultured overnight at 30° c. with dyed Nylon 6,6 fabric strip, starting OD600 0.1",4.16
same,% Inhibition,"E. coli DH5a; E. coli, dyed Nylon 6,6 fabric vs undyed fabric control",20.24%
same,growth inhibition of E. coli,"E. coli DH5a; dyed Nylon 6,6 fabric strip in culture, overnight 30° c., OD600 versus undyed fabric",most inhibited
same,Final OD600,"S. cerevisiae S228c; S. cerevisiae cultured overnight at 30° c. with dyed Nylon 6,6 fabric strip, starting OD600 0.1",4.64
same,% Inhibition,"S. cerevisiae S228c; S. cerevisiae, dyed Nylon 6,6 fabric vs undyed fabric control",13.43%
